This is an account of results in ChEMBL document CHEMBL3868618, “Synthesis and biological evaluation of chalcone derivatives containing aminoguanidine or acylhydrazone moieties” (Bioorg Med Chem Lett, 2016).

≈ marks a conversion by molar mass, not a printed value. Where only a bound is given, the exact number is not on record here.

In assay [1] the test system is Candida albicans. Put plainly: Antifungal activity against Candida albicans 7535 measured after 24 hrs by two-fold serial dilution method. The format is functional. Conditions: Candida albicans, 7535, 24 h.
Assay [2] relates to Staphylococcus aureus. Put plainly: Antibacterial activity against quinolone-resistant Staphylococcus aureus 3505 measured after 24 hrs by two-fold serial dilution method. In kind it is functional. As to conditions: Staphylococcus aureus, 3505, 24 h.
The subject of assay [3] is Staphylococcus aureus. Put plainly: Antibacterial activity against methicillin-resistant Staphylococcus aureus 3506 measured after 24 hrs by two-fold serial dilution method. As to conditions: Staphylococcus aureus, 3506, 24 h. In kind it is functional.
In assay [4] the test system is Staphylococcus aureus. Put plainly: Antibacterial activity against quinolone-resistant Staphylococcus aureus 3519 measured after 24 hrs by two-fold serial dilution method. The format is functional. As to conditions: Staphylococcus aureus, 3519, 24 h.
For assay [5], the system named is Staphylococcus aureus. Put plainly: Antibacterial activity against methicillin-resistant Staphylococcus aureus 3167 measured after 24 hrs by two-fold serial dilution method. The format is functional. As to conditions: Staphylococcus aureus, 3167, 24 h.
Assay [6] deals with Staphylococcus aureus. Put plainly: Antibacterial activity against Staphylococcus aureus 4220 measured after 24 hrs by two-fold serial dilution method. The format is functional. As to conditions: Staphylococcus aureus, 4220, 24 h.
For assay [7], the system named is Salmonella typhimurium. Put plainly: Antibacterial activity against Salmonella typhimurium 1926 measured after 24 hrs by two-fold serial dilution method. As to conditions: Salmonella enterica, 1926, 24 h. In kind it is functional, Salmonella enterica subsp. enterica serovar Typhimurium.
For assay [8], the system named is Escherichia coli. Put plainly: Antibacterial activity against Escherichia coli 1356 measured after 24 hrs by two-fold serial dilution method. In kind it is functional. As to conditions: Escherichia coli, 1356, 24 h.
Assay [9] has as its system Streptococcus mutans. Put plainly: Antibacterial activity against Streptococcus mutans 3065 measured after 24 hrs by two-fold serial dilution method. The format is functional. As to conditions: Streptococcus mutans, 3065, 24 h.
Assay [10] deals with Staphylococcus aureus. Put plainly: Antibacterial activity against Staphylococcus aureus 503 measured after 24 hrs by two-fold serial dilution method. In kind it is functional. As to conditions: Staphylococcus aureus, 503, 24 h.
For assay [11], the system named is Staphylococcus aureus. Put plainly: Antibacterial activity against Staphylococcus aureus 209 measured after 24 hrs by two-fold serial dilution method. In kind it is functional. Conditions: Staphylococcus aureus, 209, 24 h.
Assay [12] has as its system Pseudomonas aeruginosa. Put plainly: Antibacterial activity against Pseudomonas aeruginosa 2742 measured after 24 hrs by two-fold serial dilution method. In kind it is functional. Conditions: Pseudomonas aeruginosa, 2742, 24 h.
Assay [13] concerns Escherichia coli. Put plainly: Antibacterial activity against Escherichia coli 1924 measured after 24 hrs by two-fold serial dilution method. The format is functional. Conditions: Escherichia coli, 1924, 24 h.

One may read the MIC as the lowest concentration found to suppress growth. `OC(Cn1cncn1)(Cn1cncn1)c1ccc(F)cc1F` [FLUCONAZOLE] yielded an MIC in [1] of 1 µg/mL (≈ 3.27 µM).

For `Cc1onc(-c2ccccc2)c1C(=O)N[C@@H]1C(=O)N2[C@@H]1SC(C)(C)[C@@H]2C(=O)O` [OXACILLIN], the minimal inhibitory concentration (MIC) in [2] was 1 µg/mL (≈ 2.49 µM); in assay [3], over 64 µg/mL; in [4], 1 µg/mL (≈ 2.49 µM); in [5], over 64 µg/mL.

Consider `COc1c(N2C[C@@H]3CCCN[C@@H]3C2)c(F)cc2c(=O)c(C(=O)O)cn(C3CC3)c12` [MOXIFLOXACIN], for which the MIC in [6] was 0.25 µg/mL (≈ 0.623 µM); in assay [7], 1 µg/mL (≈ 2.49 µM); in assay [8], 128 µg/mL (≈ 319 µM); in assay [9] it was 0.25 µg/mL (≈ 0.623 µM); in [10], 2 µg/mL (≈ 4.98 µM).

Consider `O=C(/C=C/c1ccc(/C=N/NC(=O)c2cccc(Cl)c2)cc1)c1ccc(Cl)cc1`, for which the minimal inhibitory concentration (MIC) was 32 µg/mL (≈ 75.6 µM) in assay [6]; 32 µg/mL (≈ 75.6 µM) in assay [2]; 32 µg/mL (≈ 75.6 µM) in [11]; over 64 µg/mL in assay [7]; 32 µg/mL (≈ 75.6 µM) in assay [3]; over 64 µg/mL in assay [12]. Also, the MIC in assay [4] is 32 µg/mL (≈ 75.6 µM); in assay [13] it was 32 µg/mL (≈ 75.6 µM); in assay [8] it was 32 µg/mL (≈ 75.6 µM); in assay [5], 32 µg/mL (≈ 75.6 µM); in assay [9], over 64 µg/mL; in assay [10], 32 µg/mL (≈ 75.6 µM). The same compound registered an MIC in assay [1] of over 64 µg/mL.

Regarding `CCn1cc(C(=O)O)c(=O)c2cc(F)c(N3CCNCC3)cc21` [NORFLOXACIN], the minimum inhibitory concentration (MIC) in [2] was over 64 µg/mL; in [3], 4 µg/mL (≈ 12.5 µM); in [4], over 64 µg/mL; in assay [5], 8 µg/mL (≈ 25.1 µM).

Turning to `O=C(N/N=C/c1ccc(/C=C/C(=O)c2ccccc2F)cc1)c1ccccc1`, the MIC is over 64 µg/mL in assay [6]; over 64 µg/mL in assay [2]; over 64 µg/mL in [11]; over 64 µg/mL in assay [7]; 64 µg/mL (≈ 172 µM) in assay [3]; over 64 µg/mL in [12]. Also, the MIC in assay [4] was over 64 µg/mL; in [13], over 64 µg/mL; in [8], over 64 µg/mL; in assay [5] it was 64 µg/mL (≈ 172 µM); in assay [9], over 64 µg/mL; in [10], over 64 µg/mL. In [1], this compound gave an MIC of over 64 µg/mL.

Consider `O=C(/C=C/c1ccc(/C=N/NC(=O)c2cccc(Cl)c2)cc1)c1cccc(Cl)c1`, for which the minimal inhibitory concentration (MIC) in assay [6] was 32 µg/mL (≈ 75.6 µM); in assay [2] it was 32 µg/mL (≈ 75.6 µM); in [11], 32 µg/mL (≈ 75.6 µM); in assay [7], over 64 µg/mL; in assay [3], 32 µg/mL (≈ 75.6 µM); in assay [12], over 64 µg/mL. For the same compound, the minimal inhibitory concentration (MIC) in assay [4] is 32 µg/mL (≈ 75.6 µM); in assay [13], 32 µg/mL (≈ 75.6 µM); in assay [8] it was 32 µg/mL (≈ 75.6 µM); in assay [5], 32 µg/mL (≈ 75.6 µM); in assay [9] it was over 64 µg/mL; in assay [10] it was 32 µg/mL (≈ 75.6 µM). The same compound gave an MIC in [1] of over 64 µg/mL.

In the case of `O=C(N/N=C/c1ccc(/C=C/C(=O)c2ccccc2Br)cc1)c1ccccc1`, the MIC in assay [6], in [2], in assay [11], in assay [7], in assay [3] and in [12] was over 64 µg/mL throughout. The minimum inhibitory concentration (MIC) in [4], in assay [13], in assay [8], in assay [5], in assay [9] and in assay [10] was over 64 µg/mL throughout. In assay [1], the MIC was over 64 µg/mL.

Take `COc1c(N2CCNC(C)C2)c(F)cc2c(=O)c(C(=O)O)cn(C3CC3)c12` (stereo not drawn) [GATIFLOXACIN]: the minimal inhibitory concentration (MIC) in assay [6] came out at 0.25 µg/mL (≈ 0.666 µM); in assay [2], 8 µg/mL (≈ 21.3 µM); in assay [11], 2 µg/mL (≈ 5.33 µM); in assay [7] it was 2 µg/mL (≈ 5.33 µM); in [3] it was 2 µg/mL (≈ 5.33 µM); in assay [12], 1 µg/mL (≈ 2.66 µM). Further, the MIC in assay [4] came to 4 µg/mL (≈ 10.7 µM); in [13], 2 µg/mL (≈ 5.33 µM); in assay [8] it was 16 µg/mL (≈ 42.6 µM); in assay [5], 2 µg/mL (≈ 5.33 µM); in assay [9], 0.5 µg/mL (≈ 1.33 µM); in assay [10], 4 µg/mL (≈ 10.7 µM).
